The test system of experiment [1] is type I collagen (Col 1) gene expression. Put plainly: Evaluation I: TGF-β-induced gene expression of fibrosis-related factors in NHLF cells: Col 1. The note with it: 25 μmol/L test substance 2 hours, then TGF-β 5 ng/mL 24 hours, n = 3. The class given is cell-based, human. The method, then: NHLF cells were sown so as to make their amount 4×10^4 cells/well to each well of a 12-well plate and incubated to an extent of 80% confluent in a medium where fibroblast growth medium 2 supplement mix (FGM-2 SingleQuots, Lonza) was added to a fibroblast basal medium (FBM, Lonza). After that, incubation was conducted for 2 hours in a Dulbecco modified Eagle medium (DMEM) containing 25 μmol/L of a test substance and, after addition of […] growth factor (TGF)-β thereto so as to make its final concentration 5 ng/mL, incubation was carried out for 24 hours more.
QIAzol Lysis Reagent (QIAGEN) (1 mL) was added to the above to suspend, 200 μL of chloroform was added thereto followed by mixing and centrifugation (at 4° C. and 1500 rpm) was then conducted whereby the supernatant liquid was recovered. Total RNA was extracted and purified by treating the supernatant liquid with QIACube (QIAGEN) and RNeasy Micro Kit (QIAGEN). cDNA was prepared from the total RNA using Omniscript RT kit (QIAGEN) and Oligo(dT)12-18 Primer (Invitrogen).
Gene expression level of the fibrosis-related factors [connective tissue growth factor (CTGF), α-smooth muscle actin (SMA), fibronectin, endothelin and type I collagen (Col 1)] was measured by a conventional real time PCR method using a fluorescent dye SYBR GREEN I (Roche Diagnostics) by Light Cycler LC 480 (the same) using cDNA synthesized from the total RNA extracted in the above (2). A calibration curve was prepared by diluting the PCR product quantified by PicoGreen dsDNA Quantitation kit (Molecular probes) (a DNA quantitation kit) to an extent of 10^2˜10^7 copies/μL. From each of the resulting quantified values, copy numbers per 10000 copies of GAPDH gene being an internal standard were calculated.

Experiment [2] has as its system fibronectin gene expression. As to the kind of experiment: Evaluation II: TGF-β-induced gene expression of fibrosis-related factors in NHLF cells: fibronectin. The class given is cell-based, human. The note with it: 30 μM test substance, 200 μg/mL pirfenidone, 30 μM DEX, 1.0 μM TPCA-1 or 10 μM FP 2 hours, then TGF-β 0.5 ng/mL 4 hours, n = 4. The method, then: (§1) NHLF cells were sown so as to make their amount 5×10^4 cells/well to each well of a 12-well plate and incubated to an extent of 80% confluent in a medium where fibroblast growth medium 2 supplement mix (FGM-2 SingleQuots, Lonza) was added to a fibroblast basal medium (FBM, Lonza). After that, incubation was conducted for 2 hours in a DMEM medium containing 30 μM of a test substance, 200 μg/mL of pirfenidone, 30 μM of dexamethasone (DEX), 1.0 μM of TPCA-1 or 10 μM of fluticasone propionate (FP) and, after TGF-β was added thereto so as to make its final concentration 0.5 ng/mL, incubation was carried out for 4 hours more.
(§2) With regard to the extraction of RNA from NHLF cells, the synthesis of cDNA from RNA and the action of the test substance to gene expression of fibrosis-related factors [CFGF, TGF-β1, fibronectin and Col 1], the tests were carried out in the same manners as in (2) and (3) of the above Test Example 3.

Experiment [3] has as its system COX-2 gene expression. As to the kind of experiment: Suppression of IL-1α-induced gene expression of inflammation-related factors in bovine cartilage pieces (real time PCR): COX-2. The class given is cell-based. Particulars: 20 μmol/L test substance 2 hours, then IL-1α 3 ng/mL 8 hours, n = 3. The procedure:
Each 6 to 8 cartilage pieces (diameter: 4 mm) of bovine metacarpophalangeal joint were placed into each well of a 24-well plate and incubated for one night in 1 mL of a basal medium in a CO2 incubator which was set at 37° C. and 5% by volume of CO2. After that, they were incubated for 2 hours in a basal medium containing 20 μmol/L of a test substance and, after addition of human recombinant IL-1α (3 ng/mL) thereto, they were incubated for 8 hours more. After completion of the incubation, the culture medium was discarded, an RNA stabilizer was added to the cartilage pieces, the mixture was incubated at 4° C. for one night and the cartilage pieces were finely cut using scissors, placed into micro-tubes and stored with freezing until the extraction of RNA therefrom.
The cartilage pieces placed in the micro-tubes were pulverized using Tissue Lyser (QIAGEN) (at 25 Hz for 5 minutes; for two times), 1 mL of QIAzol Lysis Reagent (QIAGEN) was added thereto to suspend, 200 μL of chloroform was added thereto followed by mixing and the mixture was centrifuged (1500 rpm at 4° C.) to recover the supernatant liquid. Total RNA was extracted and purified using QIACube (QIAGEN) and RNeasy Micro Kit (QIAGEN). cDNA was prepared from the total RNA using Omniscript RT Kit (QIAGEN) and Oligo(dT)12-18 Primer (Invitrogen).
The cDNA synthesized from the total RNA extracted in the above (2) was used to measure the gene expression level of the inflammation-related factors [IL-1β, IL-6, COX-2 and iNOS (inducible nitric oxide synthase)] by a conventional real time PCR method using a fluorescent dye SYBR GREEN I (Roche Diagnostics) by a Light Cycler LC 480 (the same). A calibration curve was prepared by dilution of a PCR product quantified by a DNA quantitation kit (PicoGreen dsDNA Quantitiation Kit (Molecular Probes)) to an extent of 10^2˜10^7 copies/μL. From each of the resulting measured data, copy numbers per 10000 copies of glyceroaldehyde-3-phosphate dehydrogenase (GAPDH) which was an internal standard were calculated.

Experiment [4] relates to CTGF gene expression. Put plainly: Evaluation II: TGF-β-induced gene expression of fibrosis-related factors in NHLF cells: CTGF. Particulars: 30 μM test substance, 200 μg/mL pirfenidone, 30 μM DEX, 1.0 μM TPCA-1 or 10 μM FP 2 hours, then TGF-β 0.5 ng/mL 4 hours, n = 4. The class given is cell-based, human. The method, then: as §1, §2
Experiment [5] has as its system Col 1 gene expression. As to the kind of experiment: Evaluation II: TGF-β-induced gene expression of fibrosis-related factors in NHLF cells: Col 1. The class given is cell-based, human. The note with it: 30 μM test substance, 200 μg/mL pirfenidone, 30 μM DEX, 1.0 μM TPCA-1 or 10 μM FP 2 hours, then TGF-β 0.5 ng/mL 4 hours, n = 4. The procedure:
as §1, §2

In experiment [6] the test system is TGF-β1 gene expression. Put plainly: Evaluation II: TGF-β-induced gene expression of fibrosis-related factors in NHLF cells: TGF-β1. The note with it: 30 μM test substance, 200 μg/mL pirfenidone, 30 μM DEX, 1.0 μM TPCA-1 or 10 μM FP 2 hours, then TGF-β 0.5 ng/mL 4 hours, n = 4. The class given is cell-based, human. The method, then: as §1, §2
The subject of experiment [7] is mice where pulmonary fibrosis was induced by bleomycin. Put plainly: Lung wet weight increase of mice where pulmonary fibrosis was induced by bleomycin. The class given is in vivo. Particulars: ICR male mice, bleomycin 2 mg/kg i.v. 5 days; test substance 50 mg/kg or pirfenidone 200 mg/kg per os twice daily for 2 weeks; normal control 205, diseased control 303. The procedure:
Bleomycin (2 mg/kg) was repeatedly injected intravenously for 5 days to ICR male mice. The mice were organized into 4 groups of normal control group, diseased control group, test substance-administered group and pirfenidone-administered group.
A test substance was suspended in 0.5 w/v % carboxymethyl cellulose sodium (CMC) and 50 mg/kg thereof was repeatedly administered per os with stirring twice daily for 2 weeks using an oral sonde for rats. Pirfenidone was suspended in 0.5 w/v % CMC and 200 mg/kg thereof was repeatedly administered per os with stirring twice daily for 2 weeks using an oral sonde for rats. To the normal control group and the diseased control group, 0.5 w/v % CMC was repeatedly administered per os according to the same administration schedule. After finishing the administration period, both lungs were excised from the mice and their wet weight was measured.

On to `O=c1oc2c(OS(=O)(=O)c3ccc(C(F)(F)F)cc3)cccc2cc1NS(=O)(=O)c1cccc(Br)c1` [Compound 58, 3-[(3-Bromophenyl)sulfonylamino]-2-oxochromen-8-yl 4-(trifluoromethyl)benzenesulfonate], for which the “Copy Numbers per 10000 Copies of GAPDH Col 1” value in experiment [1] is 5901.0 copies per 10000 copies of GAP; in experiment [5], 525.6 copies per 10000 copies of GAP. In experiment [2], the “Copy Numbers per 10000 Copies of GAPDH Fibronectin” value is 1827.5 copies per 10000 copies of GAP. The “Copy Numbers per 10000 Copies of GAPDH COX-2” value in experiment [3] is 982.3 copies per 10000 copies of GAP. Moreover, the “Copy Numbers per 10000 Copies of GAPDH CTGF” value in experiment [4] is recorded as 115.8 copies per 10000 copies of GAP. In experiment [6], the “Copy Numbers per 10000 Copies of GAPDH TGF-β1” value was 704.5 copies per 10000 copies of GAP.
In turn, `O=c1oc2c(OS(=O)(=O)c3cccc(Br)c3)cccc2cc1NS(=O)(=O)c1cccc(C(F)(F)F)c1` [Compound 60, 2-Oxo-3-[[3-(trifluoromethyl)phenyl]sulfonylamino]-chromen-8-yl 3-bromobenzenesulfonate] returned a Wet Lung Weight in experiment [7] of 250 mg. Also, the “Copy Numbers per 10000 Copies of GAPDH Col 1” value in experiment [1] was 11388.1 copies per 10000 copies of GAP; in experiment [5], 650.6 copies per 10000 copies of GAP. The “Copy Numbers per 10000 Copies of GAPDH Fibronectin” value in experiment [2] is 1446.2 copies per 10000 copies of GAP. Also, the “Copy Numbers per 10000 Copies of GAPDH COX-2” value in experiment [3] is given as 920.6 copies per 10000 copies of GAP. In experiment [4], the “Copy Numbers per 10000 Copies of GAPDH CTGF” value was 119.0 copies per 10000 copies of GAP. For the same molecule, the “Copy Numbers per 10000 Copies of GAPDH TGF-β1” value in experiment [6] is 707.1 copies per 10000 copies of GAP.
Turning to `O=c1oc2c(OS(=O)(=O)c3cccc(C(F)(F)F)c3)cccc2cc1NS(=O)(=O)c1ccc(C(F)(F)F)cc1` [Compound 68, 2-Oxo-3-[[4-(trifluoromethyl)phenyl]sulfonylamino]-chromen-8-yl 3-(trifluoromethyl)benzenesulfonate], in experiment [1], the “Copy Numbers per 10000 Copies of GAPDH Col 1” value is 8905.8 copies per 10000 copies of GAP. Moreover, the “Copy Numbers per 10000 Copies of GAPDH COX-2” value in experiment [3] is 1655.9 copies per 10000 copies of GAP.
The matching figures for `O=c1oc2c(OS(=O)(=O)c3ccc(C(F)(F)F)cc3)cccc2cc1NS(=O)(=O)c1cccc(C(F)(F)F)c1` [Compound 57, 2-Oxo-3-[[3-(trifluoromethyl)phenyl]sulfonylamino]-chromen-8-yl 4-(trifluoromethyl)benzenesulfonate]: 9715.8 copies per 10000 copies of GAP and 1420.8 copies per 10000 copies of GAP.

The values above are taken from patent US10004716B2, “Therapeutic/ preventive agent containing coumarin derivative as active ingredient” (NIPPON ZOKI PHARMACEUTICAL CO., LTD., priority 2014, dated 2018).
